We go through two compounds from patent US20240382589A1, “Synergistic Inhibition of eIF5A and Notch Signaling in Intermediate Tregs” (The University of Toledo, priority 2022, published 2024).

The target of series [1] is T1, deoxyhypusine synthase (DHS) (Homo sapiens, UniProt P49366).
T1 sequence (P49366 1-369): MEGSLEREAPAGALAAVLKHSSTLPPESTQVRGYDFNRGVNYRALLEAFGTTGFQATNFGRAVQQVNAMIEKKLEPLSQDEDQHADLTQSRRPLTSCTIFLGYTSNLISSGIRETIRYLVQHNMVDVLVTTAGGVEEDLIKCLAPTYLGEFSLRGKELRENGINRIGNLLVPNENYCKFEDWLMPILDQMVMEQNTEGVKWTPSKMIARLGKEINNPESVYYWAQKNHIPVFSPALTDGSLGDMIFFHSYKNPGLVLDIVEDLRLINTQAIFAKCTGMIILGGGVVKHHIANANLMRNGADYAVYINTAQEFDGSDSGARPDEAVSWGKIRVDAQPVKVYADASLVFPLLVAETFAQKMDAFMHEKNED
To be noted: cited from earlier work.

The test system of series [2] is anti-GAD65, anti-IA2 and anti-insulin autoantibodies. The series is described as follows: Anti-GAD65, anti-IA2 and anti-insulin autoantibody ELISA in mouse serum. The series is classed as in vivo. To be noted: TID mice; treatment with GC7 or anti-DLL4. The protocol: Anti-GAD65, anti-IA2, and anti-insulin autoantibodies were measured in mice serum using
an Anti-GAD65 ELISA kit (Kronus, Star, ID) according to the manufacturer's instructions. Mice anti-insulin antibodies were measured using a mouse insulin autoantibody (IAA) ELISA kit (Abbexa, catalog #abx053161. Abbexa LLC, Houston, TX, United States; with a positive predictive value range between 0.16 and 10 ng/ml). Anti-IA2 autoantibodies were also measured using a human IA2 autoantibody (IA2Ab) ELISA kit (Kronus, Star, ID) following the manufacturers' manual.
A general note: In an ELISA, binding on a coated surface is turned into a signal by an enzyme label.

A further series relates to TID mice and NOD mice. To be noted: cited from earlier work.
The test system of series [3] is CD4, CD8 and CD25 T cells isolated from PLN of TID mice. Nature of the series: In vitro co-stimulation / CFSE proliferation of T cells from PLN of TID mice. It is filed as cell-based, mouse. The protocol: Purified CD4, CD8, and CD25 cells were isolated from TID mice using the mice CD4 T Cell Isolation Kit (#130-104-454), CD8a+ T Cell Isolation Kit II (#130-095-236), and CD4+ CD25+ Regulatory T Cell Isolation Kit (Cat no: 130-091-041) following standard protocol. Briefly, after sacrificing the TID mice, pancreatic lymph nodes (PLN) were isolated and single cell suspensions were prepared. Non-CD4 T cells and non-CD8 T cells were isolated using magnetically labeled microbeads. Non-CD4 T cells were retained in the MACS column and non-touch enriched CD4 and CD8 cells were eluted from the column. Simultaneously CD25 positive cells were separated from the CD4 clute with anti-CD25PE microbeads with more than 90% purity. Single cell suspensions of CD4, CD8, and CD25^− T cells were stained with carboxyfluorescein succinimidyl ester (CFSE) to track the induced proliferation. Single cell suspensions of purified CD4, CD8, and CD25 T cells (CFSE-labeled) were co-stimulated with recombinant human GAD65 (rhGAD65) protein ([…]), GC7 (100 mM), anti-DLL4 ([…]), rhGAD65+GC7, rhGAD65+GC7+anti-DLL4, or CD3+CD28 stimulated for 4 days (n=7). CD4 T cells (CFSE-labeled) were further stained with fluorochrome-conjugated antibodies against mouse IL-17(clone 559502, PE), IFNg (clone 554413, APC), and forkhead box P3 (Foxp3) (clone MF23, Alexa Fluor@488, Alexa Fluor@647). In vitro proliferation assays were analyzed by FLOWJO V10 Beta software using fix ratio, fix CV, and fix background from unstimulated cells.

In general, IC50 refers to the concentration that gives 50% inhibition. Take `C/C(=N\NC(=N)N)c1cc(NC(=O)CCCCCCCCC(=O)Nc2cc(/C(C)=N/NC(=N)N)cc(/C(C)=N/NC(=N)N)c2)cc(/C(C)=N/NC(=N)N)c1` [Semapimod]: in series [1], the IC50 was about 2000 µM.

As to `N=C(N)NCCCCCCCN` [GC7, N1-guanyl-1,7-diaminoheptane], the IC50 in series [1] is 0.017 µM. In series [2], the GAD65 antibody titer result is given as “significantly reduced”. In addition, the “adverse effect in previous in vivo studies” value in the series on TID mice and NOD mice is listed as “did not reveal any significant adverse effect”. Moreover, the “Treg population (expression of CD25 and FOXP3 on CD3+ CD4 T cells)” value in series [3] (GC7 (100 mM), 4 days) was “significantly enriched”. Moreover, the “replicative index of Treg cells (Treg peak)” value in series [3] (GC7 (100 mM), CFSE) was “significant Treg peak”. For the same compound, the “proliferation index of CD8 T cells” value in series [3] (compared to conventional stimulation with anti-(CD3+CD28)/rhGAD65) is on record as “not significant”.
